In PubChem BioAssay AID248 (DTP/NCI, 2004):
Toxic doses and inconclusive results are not listed.

System: L1210 leukemia ip in BDF1 mice, survival T/C
Assay: NCI In Vivo Anticancer Drug Screen. Data for tumor model L1210 Leukemia (intraperitoneal) in B6D2F1 (BDF1) mice
Conditions: endpoint: mean survival time, higher = longer survival
How it was run: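 Value reflects the ratio of survival in compound-treated mice to survival in vehicle-treated controls, with both groups carrying the same transplanted tumor.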

[1] = dose: 100.0 mg/kg/injection, schedule: Q01DX001 (ip), vehicle: saline
[2] = dose: 100.0 mg/kg/injection, schedule: Q01DX009 (ip), vehicle: acetone
[3] = dose: 200.0 mg/kg/injection, schedule: Q01DX001 (ip), vehicle: saline
[4] = dose: 200.0 mg/kg/injection, schedule: Q01DX009 (ip), vehicle: acetone
[5] = dose: 400.0 mg/kg/injection, schedule: Q01DX001 (ip), vehicle: saline
[6] = dose: 50.0 mg/kg/injection, schedule: Q01DX001 (ip), vehicle: saline
[7] = dose: 100.0 mg/kg/injection, schedule: Q01DX001 (ip), vehicle: carboxymethylcellulose (CMC)
[8] = dose: 200.0 mg/kg/injection, schedule: Q01DX001 (ip), vehicle: carboxymethylcellulose (CMC)
[9] = dose: 400.0 mg/kg/injection, schedule: Q01DX001 (ip), vehicle: carboxymethylcellulose (CMC)
[10] = dose: 100.0 mg/kg/injection, schedule: Q01DX009 (ip), vehicle: Klucel (hydroxypropylcellulose) (HPC)
[11] = dose: 200.0 mg/kg/injection, schedule: Q01DX009 (ip), vehicle: Klucel (hydroxypropylcellulose) (HPC)
[12] = dose: 75.0 mg/kg/injection, schedule: Q01DX001 (ip), vehicle: saline
[13] = dose: 150.0 mg/kg/injection, schedule: Q01DX001 (ip), vehicle: saline
[14] = dose: 400.0 mg/kg/injection, schedule: Q04DX002 (ip), vehicle: saline
[15] = dose: 100.0 mg/kg/injection, schedule: Q04DX003 (ip), vehicle: Klucel (hydroxypropylcellulose) (HPC)
[16] = dose: 400.0 mg/kg/injection, schedule: Q01DX009 (ip), vehicle: Klucel (hydroxypropylcellulose) (HPC)

In the case of `CC(CC(=O)C(F)(F)F)=NCC(C)N=C(C)CC(=O)C(F)(F)F` (configuration not stated), the T/C (dose: 100.0 mg/kg/injection, schedule: Q01DX001 (ip), vehicle: other) is reported as 101 % of control, the T/C (dose: 100.0 mg/kg/injection, schedule: Q04DX003 (ip), vehicle: other) is reported as 115 % of control and the T/C (dose: 200.0 mg/kg/injection, schedule: Q01DX001 (ip), vehicle: other) is reported as 86 % of control. For the same compound, the T/C (dose: 200.0 mg/kg/injection, schedule: Q04DX003 (ip), vehicle: other) was 105 % of control, the T/C (dose: 400.0 mg/kg/injection, schedule: Q01DX001 (ip), vehicle: other) was 97 % of control and the T/C (dose: 400.0 mg/kg/injection, schedule: Q04DX003 (ip), vehicle: other) was 111 % of control.

In the case of `O=[N+]([O-])c1ccc(S(=O)(=O)CC(Cl)c2ccccc2)cc1` (configuration not stated), the T/C [1] is reported as 102 % of control, the T/C [2] is reported as 86 % of control and the T/C [3] is reported as 107 % of control. The T/C [4] was 94 % of control, the T/C [5] was 110 % of control and the T/C (dose: 400.0 mg/kg/injection, schedule: Q01DX009 (ip), vehicle: acetone) was 96 % of control.

With `Cc1cn(C2CCCO2)c(=O)nc1N` (configuration not stated) the T/C [6] was 103 % of control, the T/C [1] was 97 % of control and the T/C [3] was 95 % of control. For the same compound, the T/C [5] was 101 % of control.

In the case of `CCN(CCO)CCNc1ccc(C)c2sc3ccccc3c(=O)c12`, the T/C (dose: 26.0 mg/kg/injection, schedule: Q01DX009 (ip), vehicle: saline) is reported as 110 % of control, the T/C (dose: 40.0 mg/kg/injection, schedule: Q01DX009 (ip), vehicle: saline) is reported as 122 % of control and the T/C [6] is reported as 105 % of control. For the same compound, the T/C (dose: 60.0 mg/kg/injection, schedule: Q01DX009 (ip), vehicle: saline) was 124 % of control, the T/C (dose: 78.0 mg/kg/injection, schedule: Q04DX003 (ip), vehicle: saline) was 111 % of control and the T/C [1] was 116 % of control. For the same compound, the T/C (dose: 114.0 mg/kg/injection, schedule: Q01DX001 (ip), vehicle: saline) was 104 % of control, the T/C (dose: 114.0 mg/kg/injection, schedule: Q04DX003 (ip), vehicle: saline) was 120 % of control and the T/C (dose: 135.0 mg/kg/injection, schedule: Q01DX009 (ip), vehicle: saline) was 95 % of control. The T/C (dose: 174.0 mg/kg/injection, schedule: Q01DX001 (ip), vehicle: saline) was 110 % of control, the T/C (dose: 174.0 mg/kg/injection, schedule: Q04DX003 (ip), vehicle: saline) was 172 % of control and the T/C [3] was 121 % of control. For the same compound, the T/C (dose: 260.0 mg/kg/injection, schedule: Q01DX001 (ip), vehicle: saline) was 165 % of control.

`O=C(NCCCCCCCCCNC(=O)Nc1ccc(C2=NCCN2)cc1)Nc1ccc(C2=NCCN2)cc1` was tested, and the T/C (dose: 62.0 mg/kg/injection, schedule: Q01DX Z (ip), vehicle: carboxymethylcellulose (CMC)) was 102 % of control and the T/C (dose: 125.0 mg/kg/injection, schedule: Q01DX Z (ip), vehicle: carboxymethylcellulose (CMC)) was 100 % of control.

With `CCCCCCC1N(Cc2ccccc2OC)CCCN1Cc1ccccc1OC` the T/C [7] was 100 % of control, the T/C [8] was 105 % of control and the T/C [9] was 94 % of control.

With `OCCN1CCN(C(=S)[S-])CC1.OCCN1CCN(C(=S)[S-])CC1.[Zn]` the T/C (dose: 10.0 mg/kg/injection, schedule: Q04DX003 (ip), vehicle: saline) was 93 % of control and the T/C (dose: 20.0 mg/kg/injection, schedule: Q04DX003 (ip), vehicle: saline) was 90 % of control.

In the case of `CCOc1ccc(Br)cc1C1N(Cc2ccccc2OC)CCCN1Cc1ccccc1OC`, the T/C [7] is reported as 100 % of control, the T/C [8] is reported as 92 % of control and the T/C [9] is reported as 94 % of control.

For `O=C1OC(=O)C2C1C=C(c1ccccc1)C1C3C=CC(C4C(=O)OC(=O)C34)C21` (configuration not stated), the T/C [6] was 98 % of control, the T/C [1] was 101 % of control and the T/C [3] was 104 % of control. The T/C [5] was 106 % of control.

In the case of `CCc1ccccc1NC(=S)NC1CCCCC1`, the T/C [10] is reported as 92 % of control and the T/C [11] is reported as 101 % of control.

`Oc1[nH]c2ccccc2c1N=NC(=S)Nc1ccccc1` was tested, and the T/C [12] was 91 % of control and the T/C [13] was 87 % of control.

`O=C(c1ccccc1)C1CSSC1c1ccccc1` (configuration not stated) was tested, and the T/C (dose: 12.5 mg/kg/injection, schedule: Q04DX003 (ip), vehicle: Klucel (hydroxypropylcellulose) (HPC)) was 100 % of control, the T/C (dose: 25.0 mg/kg/injection, schedule: Q04DX003 (ip), vehicle: Klucel (hydroxypropylcellulose) (HPC)) was 100 % of control and the T/C (dose: 50.0 mg/kg/injection, schedule: Q04DX003 (ip), vehicle: Klucel (hydroxypropylcellulose) (HPC)) was 97 % of control.

With `C[N+](C)(C)CCCS(=O)(=O)[O-]` the T/C (dose: 50.0 mg/kg/injection, schedule: Q01DX001 (sc), vehicle: saline) was 98 % of control, the T/C (dose: 100.0 mg/kg/injection, schedule: Q01DX001 (sc), vehicle: saline) was 98 % of control and the T/C (dose: 100.0 mg/kg/injection, schedule: Q04DX002 (ip), vehicle: saline) was 100 % of control. For the same compound, the T/C (dose: 200.0 mg/kg/injection, schedule: Q01DX001 (sc), vehicle: saline) was 109 % of control, the T/C (dose: 200.0 mg/kg/injection, schedule: Q04DX002 (ip), vehicle: saline) was 111 % of control and the T/C (dose: 400.0 mg/kg/injection, schedule: Q01DX001 (sc), vehicle: saline) was 98 % of control. The T/C [14] was 95 % of control.

For `C=CC12CCCCC1C(=C)C(=O)OC2` (configuration not stated), the T/C (dose: 12.5 mg/kg/injection, schedule: Q04DX002 (ip), vehicle: saline with Tween-80) was 92 % of control, the T/C (dose: 25.0 mg/kg/injection, schedule: Q04DX002 (ip), vehicle: saline with Tween-80) was 99 % of control and the T/C (dose: 50.0 mg/kg/injection, schedule: Q04DX002 (ip), vehicle: saline with Tween-80) was 96 % of control.

`O=C(O)CC(Sc1ccccc1)c1ccccc1` (configuration not stated) was tested, and the T/C (dose: 50.0 mg/kg/injection, schedule: Q01DX009 (ip), vehicle: Klucel (hydroxypropylcellulose) (HPC)) was 98 % of control, the T/C [10] was 101 % of control and the T/C (dose: 177.0 mg/kg/injection, schedule: Q04DX002 (ip), vehicle: saline) was 94 % of control. The T/C [11] was 96 % of control, the T/C (dose: 266.0 mg/kg/injection, schedule: Q04DX002 (ip), vehicle: saline) was 94 % of control and the T/C [14] was 105 % of control. The T/C (dose: 600.0 mg/kg/injection, schedule: Q04DX002 (ip), vehicle: saline) was 103 % of control.

In the case of `Cc1ccc(Cl)cc1NC(=O)c1ccc(Cl)cc1Cl`, the T/C [10] is reported as 110 % of control, the T/C [15] is reported as 92 % of control and the T/C [11] is reported as 91 % of control. The T/C (dose: 200.0 mg/kg/injection, schedule: Q04DX003 (ip), vehicle: Klucel (hydroxypropylcellulose) (HPC)) was 95 % of control, the T/C [16] was 89 % of control and the T/C (dose: 400.0 mg/kg/injection, schedule: Q04DX003 (ip), vehicle: Klucel (hydroxypropylcellulose) (HPC)) was 88 % of control.

For `CN(C)CCC(O)Cc1ccccc1` (configuration not stated), the T/C [2] was 95 % of control and the T/C [4] was 101 % of control.

`O=c1ccc2c([nH]1)CCC2` was tested, and the T/C (dose: 25.0 mg/kg/injection, schedule: Q01DX009 (ip), vehicle: saline) was 111 % of control, the T/C (dose: 25.0 mg/kg/injection, schedule: Q04DX003 (ip), vehicle: saline with Tween-80) was 94 % of control and the T/C (dose: 50.0 mg/kg/injection, schedule: Q01DX009 (ip), vehicle: saline) was 121 % of control. For the same compound, the T/C (dose: 50.0 mg/kg/injection, schedule: Q04DX003 (ip), vehicle: saline with Tween-80) was 98 % of control, the T/C (dose: 100.0 mg/kg/injection, schedule: Q01DX009 (ip), vehicle: saline) was 101 % of control and the T/C [15] was 100 % of control. The T/C (dose: 100.0 mg/kg/injection, schedule: Q04DX003 (ip), vehicle: saline with Tween-80) was 94 % of control.

For `Nc1cc(OCc2ccccc2)cc(OCc2ccccc2)c1`, the T/C (dose: 25.0 mg/kg/injection, schedule: Q01DX009 (ip), vehicle: water) was 89 % of control, the T/C (dose: 50.0 mg/kg/injection, schedule: Q01DX009 (ip), vehicle: water) was 97 % of control and the T/C (dose: 100.0 mg/kg/injection, schedule: Q01DX009 (ip), vehicle: water) was 93 % of control.

`O=C(O)c1c(O)cc(=O)oc1-c1ccc(Cl)cc1Cl` was tested, and the T/C [12] was 101 % of control, the T/C [13] was 101 % of control and the T/C (dose: 300.0 mg/kg/injection, schedule: Q01DX001 (ip), vehicle: saline) was 106 % of control.

For `COc1ccc(C=O)cc1OC`, the T/C [10] was 101 % of control, the T/C [11] was 102 % of control and the T/C [16] was 96 % of control.

`C=CC1=CC(=O)OC1=O` was tested, and the T/C (dose: 10.0 mg/kg/injection, schedule: Q01DX001 (ip), vehicle: saline) was 88 % of control.
